From US20140315972A1, “RS)-2-(2-oxo-4-phenylpyrrolidin-1-yl)acetamide compound having modulatory activity with a commensurate effect, pharmaceutical substance (variants) and its application, composition (variants) thereof” (priority 2011, published 2014)
Where “and” joins values, the source holds several entries; their conditions need not be identical. Identical values can stand only once. Marks after values point to notes of the source that are not given here.

What was measured:
rats [1] = experiment: Anti-ulcerogenic action under Ds-conditions; assay type: in vivo; details: listed as Phenotropil
[2] = Daily diuresis in non-obese humans; assay type: in vivo, human; details: for Daily urine volume (ml/day, %): adult humans, background (not treated) = 100
Description: The effect of Phenotropil (25, 50 and 100 mg in the morning) on diuresis was investigated in non-obese groups (males and females 23-47 years) for 10 days. The daily volume of urine when treated with placebo and Phenotropil was recorded.

rats [3] = experiment: Forced swimming by Porsolt (behavioral despair), rat pups; assay type: in vivo; details: for Duration of immobilization vs control: listed as Phenotropil
Description: The antidepressant effect of Phenotropil was studied in adult rats (185-218 g) and rat pups of 28-35 days of age (85-110 g). The test drugs were injected intraperitoneally in the first case and intragastrically in the second case 40 min before the tests. The methods of behavioral despair during forced swimming (Porsolt et al., 1978) and forced swimming with freely rotating wheels (Nomura et al., 1982) were used.

[4] = system: mycobacteria (MTB), strain H37Rv; experiment: Mycobacteria (MTB) culture growth in vitro; assay type: cell-based
Description: The presence of the proper anti-inflammatory effect in Phenotropil formed the basis for investigation of the effect of the drug on more complex pathological agents. The effect of different concentrations of Phenotropil on the mycobacteria (MTB) culture growth in vitro according to research standards (test culture—highly virulent laboratory strain H37Rv) was studied. A wide range of drug concentrations was prepared: 1 series—100, 50, 10 μg/ml, 2 series—from 10 to 0.31 μg/ml, and 3 series—from 2 to 0.031 μg/ml. To prepare the matrix solution, the sterile distilled water was used, and the Shkolnikova medium was used to prepare the said concentrations. To assess the growth and morphological properties of the MTB culture, suspended mycobacteria at appropriate concentrations of Phenotropil solution were inoculated on the Lowenstein-Jensen medium and Shkolnikova medium (4 tubes for each point). After 2 weeks, the presence of growth was determined visually in the Shkolnikova medium and smears from the sediment were prepared. The smears were fixed and stained according to Ziehl-Neelsen method. The number of mycobacteria in smears was counted and, based on the results obtained, the concentration of the drug at which the inhibition of the growth was observed was determined. The number of the MTB colonies and their morphological characteristics were evaluated on the Lowenstein-Jensen medium after four weeks from the time of inoculation. Registration of the results was also carried out four weeks after inoculation.

Solubility = assay type: physicochemical
From the text: The crystalline powder of the Phenotropil substances is not volatile, has white, rarely white to slightly yellowish or slightly cream color, bitter taste (bitter taste that disappears in the mouth rather quickly after dissolution, leaving no unpleasant sensations). In the related products, the bitter taste persists. The Compounds are sparingly soluble in water and saline, moderately soluble in 96.0% alcohol and chloroform. Readily soluble in water and saline under heating, but the solutions are not stable during cooling and storage under normal conditions (not more than 2 hours, which is acceptable for the extemporaneous preparations and research), moderately soluble in 5.0% glucose solution, dissolve well in the presence of solubilizers and emulsifiers. Tween80 and cyclodextrins increase solubility in water, especially Tween80, while cyclodextrins have limitations by concentration. Sterile 0.001-3% solutions of Phenotropil in the presence of cyclodextrin or Tween (water for injection, Phenotropil, cyclodextrin (or Tween solution) were thoroughly stirred for 30 minutes, filtered, dispensed into ampoules of neutral glass, the ampoules were sealed and sterilized for 15 minutes at 120° C.). Sterile solutions are storage stable for at least 12 months. The ultimate shelf life is not specified; the samples are being stored.

mice = experiment: Tremor caused by arecoline; assay type: in vivo; details: for Duration of tremor: mice, arecoline 25 mg/kg
From the text: Studies have been conducted on white outbred male mice (18-24 g), in comparison with the olanzapine (Zyprexa) with intraperitoneal injection.

rats [5] = experiment: Hypobaric hypoxia in 7-day-old rats; assay type: in vivo

NC(=O)CN1CC(c2ccccc2)CC1=O (racemic) [Compound 1, (RS)-2-(2-oxo-4-phenylpyrrolidine-1-yl)acetamide]
ulcer number vs control (100) (rats [1]; 25 mg/kg + 5.0% glucose solution, 25 mg/kg): −45% and −42 * % | ulcer number vs control (100) (rats [1]; 50 mg/kg + 5.0% glucose solution, 50 mg/kg): −63% and −63 * % | ulcer number vs control (100) (rats [1]; 100 mg/kg + 5.0% glucose solution, 100 mg/kg): −80% and −80 * % | increase of daily urine output, average index ([2]; 25, 50, 100 mg in the morning, first three days): 30-37% | Daily urine volume (ml/day, %) ([2]; 25 mg/day): 130 * % | Daily urine volume (ml/day, %) ([2]; 50 mg/day): 137 * % | Daily urine volume (ml/day, %) ([2]; 100 mg/day): 137 * % | fluctuations in urine output ([2]; next 7 days): 5-10% | Duration of immobilization (rats [3]; intragastric 100 mg/kg): 86.35 ± 51.97 s | Duration of immobilization vs control (rats [3]; intragastric 100 mg/kg): −79.8% and −79.77 * % | Duration of immobilization (rats [3]; intragastric 200 mg/kg): 118.72 ± 80.04 s | Duration of immobilization vs control (rats [3]; intragastric 200 mg/kg): −72.2% and −72.19 * % | Mean number of MTB colonies ([4]; 0.031 ug/ml): contiguous | Mean number of MTB colonies ([4]; 0.063 ug/ml): contiguous | Mean number of MTB colonies ([4]; 0.125 ug/ml): 107 | Mean number of MTB colonies ([4]; 0.250 ug/ml): 97 | Mean number of MTB colonies ([4]; 0.310 ug/ml): 83 | Mean number of MTB colonies ([4]; 0.500 ug/ml): 70 | Mean number of MTB colonies ([4]; 0.630 ug/ml): 65 | Mean number of MTB colonies ([4]; 1.0 ug/ml): 67 | Mean number of MTB colonies ([4]; 1.25 ug/ml): 74 | Mean number of MTB colonies ([4]; 2.0 ug/ml): 79 | Mean number of MTB colonies ([4]; 5.0 ug/ml): 90 | Mean number of MTB colonies ([4]; 10.0 ug/ml): 123 | Mean number of MTB colonies ([4]; 50.0 ug/ml): contiguous | Mean number of MTB colonies ([4]; 100 ug/ml): contiguous | number of MTB colonies ([4]; concentrations from 0.25 to 5.0 μg/ml): Less than 100 | solubility in 96% alcohol and chloroform (Solubility): moderately soluble | solubility in water (and saline) (Solubility): sparingly soluble in water | reduction of duration of tremor (mice; 200 mg/kg): 63% | reduction of duration of tremor (mice; 300 mg/kg): 50% | Duration of tremor (mice; 200 mg/kg): 153 ± 27 s | Duration of tremor (mice; 300 mg/kg): 208 ± 36 s | altitude at which tremor was displayed (rats [5]; 300 mg/kg): 11 thousand meters | altitude at which tremor was observed (rats [5]; 50 and 100 mg/kg (control 7,000 m)): 10,000 m | Duration of life of animals (rats [5]; ascension to 11000 m, 50 mg/kg): 6.9 ± 0.7 min | Duration of life of animals (rats [5]; ascension to 11000 m, 100 mg/kg): 6.9 ± 0.7 min | Duration of life of animals (rats [5]; ascension to 12000 m, 300 mg/kg): 7.3 ± 0.7 min | tremor during stay at 11,000 meters for 2 hours (rats [5]; control 11 episodes): tremor was observed only once
